This is an account of results in US11291670B2, “Therapeutic approaches for treating Alzheimer disease and related disorders through a modulation of angiogenesis” (PHARNEXT, priority 2008, dated 2022).

Common to all, as to type: cell-based
Series [1] deals with rat primary cortical cells. The series is described as follows: human Aβ1-42 toxicity, LDH release in rat primary cortical neurons. The settings on record: Aβ1-42 10 μM 24 h, 1 hr pre-treatment; FIG. 3.
Protocol: Primary rat cortical neurons are cultured as described previously.
Briefly, Aβ1-42 peptide was reconstituted in define culture medium at 40 μM (mother solution) and was slowly shaked at +37° C. for 3 days in dark. The control medium was prepared in the same conditions.
After 10 days of neuron culture, drug was solved in culture medium (+0.1% DMSO) and then pre-incubated with neurons for 1 hour before the Aβ1-42 application (in a final volume per culture well of 100 μl). One hour after drug incubation, 100 μl of Aβ1-42 peptide was added to a final concentration of 10 μM diluted in presence of drug, in order to avoid further drug dilutions. Cortical neurons were intoxicated for 24 hours. Three separate cultures were performed per condition, 6 wells per condition.
BDNF (50 ng/ml) and Estradiol-β (100 and 150 nM) were used as positive control and reference compounds respectively.
The following conditions were assessed: • 1 CONTROL PLAQUE: 12 wells/condition • Negative Control: medium alone+0.1% DMSO • Intoxication: amyloid-β1-42 (10 μM) for 24 h • Positive control: BDNF (50 ng/ml) 1 hr followed by amyloid-β1-42 (10 μM) for 24 h • Reference compound: Estradiol (150 nM) 1 hr followed by amyloid-β1-42 (10 μM) for 24 h. • DRUG PLATE: 6 wells/condition • Negative Control: medium alone+0.1% DMSO • Intoxication: amyloid-β1-42 (10 μM) for 24 h • Drug 1: Drug 1-1 hr followed by amyloid-β1-42(10 μM) for 24 h • Drug 2: Drug 2-1 hr followed by amyloid-β1-42(10 μM) for 24 h Lactate Dehydrogenase (LDH) Activity Assay
This colorimetric assay for the quantification of cell toxicity is based on the measurement of lactate dehydrogenase (LDH) activity released from the cytosol of dying cells into the supernatant.
All values are expressed as mean±s.e.mean of the 3 cultures (n=6 per condition). Statistic analyses were done on the different conditions (ANOVA followed by the Dunnett's test when it was allowed, Statviewi software version 5.0).
Series [2] relates to Human Brain Microvascular Endothelial Cells (HBMEC). The series is described as follows: human Aβ1-42 injury in HBMEC, total length of capillary network. To be noted: for Effect on intoxication: total length of capillary network in beta-amyloid intoxicated HBMEC cultures: Aβ1-42 2.5 μM, combination versus each drug alone at the same concentrations, FIG. 4-6; for Prevention of Aβ1-42 intoxication in HBMEC (capillary network): drug pretreatment, FIG. 2B, 2C. The procedure: Human brain microvascular endothelial cerebral cells (HBMEC, ScienCell Ref: 1000, frozen at passage 10) were rapidly thawed in a waterbath at +37° C.
The control medium was prepared in the same conditions.
After 3 days, this human amyloid peptide was used on HBMEC at 2.5 μM diluted in control medium (optimal incubation time). The Aβ1-42 peptide was added 2 hours after HBMEC seeding on matrigel for 18 hours incubation.
Capillary Network Quantification
Per well, 2 pictures with 4× lens were taken using InCell Analyzer™ 1000 (GE Healthcare) in light transmission. All images were taken in the same conditions. Analysis of the angiogenesis networks was done using Developer software (GE Healthcare). The total length of capillary network was assessed.
All values are expressed as mean±s.e.mean of the 3 cultures (n=6 per condition). Statistic analyses were done on the different conditions performing an ANOVA followed by the Dunnett's test when it was allowed (Statview software version 5.0). The values (as %) inserted on the graphs show the amyloid toxicity evolution. Indeed, the amyloid toxicity was taken as the 100% and the test compound effect was calculated as a % of this amyloid toxicity.

In series [3] the test system is rat endothelial cerebral cells. The series is described as follows: Aβ25-35 peptide toxicity, LDH release from rat endothelial cerebral cells. To be noted: FIG. 1; for Protective effect against beta-amyloid peptide toxicity on LDH release (prevention of Aβ25-35 intoxication): Aβ25-35 30 μM, 3 days, drug added 1 hour before; for Spontaneous cell death in the culture medium: rat endothelial cerebral cells, LDH release. The procedure:
Primo culture of rat endothelial cerebral cells (Vect-Horus SAS, Marseille) is cultivated on passage 0. At confluence, endothelial cells are dissociated with trypsin EDTA (Pan Biotech Ref: P10-023100). Cells are seeded at a density of 25 000 cells/well in 96 well-plates (wells are coated with 30 μl of type I rat collagen at 1.5 mg/ml, Vect-Horus SAS, Marseille) and are cultured in MCBD 131 medium (M−131-500, Invitrogen) supplemented with 1% of microvascular growth supplement (MVGS, S-005-25, Invitrogen). Cells are cultured at 37° C. in a humidified air (95%)/CO2(5%) atmosphere. Half of the medium is changed every other day with fresh medium. After 4 days, drugs are added to the cell culture medium, at different concentrations, solved in DMSO 0.1% or water.
Cells are then intoxicated with 30 μM of β-amyloid (25-35; Sigma) together with drugs in the same culture medium. Cells are then intoxicated during 3 days.
For each culture, after 3 days of intoxication, the supernatant is collected and analyzed with Cytotoxicity Detection Kit (LDH, Roche Applied Sciences). This colorimetric assay for the quantification of cell death is based on the measurement of lactate dehydrogenase (LDH) activity released from the cytosol of damaged cells into the supernatant. The optic density (DO) is assessed by spectrophotometer at 492 nm wavelength by a multiscan apparatus (Thermo, Ref Ascent).
Results presented in FIG. 1 are extracted from two independent cultures, 6 wells per condition. All values are expressed as mean±s.e.m. A bilateral Student's t test analysis is performed on raw data. Results are expressed in percentage of cell viability, compared to the control (vehicle).
Drugs are incubated with rat primary cerebral endothelial cells one hour before Aβ25-35 30 μM intoxication that lasts 3 days.
Three days after this incubation, LDH release in the culture medium is quantified, reflecting the level of cell death.
On the technique in general: LDH in the medium is a marker of cell lysis.

In the case of `NCC(CC(=O)O)c1ccc(Cl)cc1` (racemic) [Baclofen], in series [1], the “Change of LDH release (Aβ1-42 amyloid injury) in rat primary cortical cells” value (“Change of LDH release” below) is listed as −86%. Also, in series [2], the “Effect on intoxication: total length of capillary network in beta-amyloid intoxicated HBMEC cultures” value (“Effect on intoxication: total length” for short) is “no significant effect” and the “Prevention of Aβ1-42 intoxication in HBMEC (capillary network)” value was “significantly prevented”.
`NCC(CC(=O)O)c1ccc(Cl)cc1` (stereo not drawn) [Baclofen (−), Baclofen]: in series [3], the “Protective effect against beta-amyloid peptide toxicity on LDH release (prevention of Aβ25-35 intoxication)” value (“Protective effect” below) is given as “significantly prevented”.
With `Cc1oncc1C(=O)Nc1ccc(C(F)(F)F)cc1` [Leflunomide], in series [3], the “Protective effect” value is given as “significantly prevented” and the “Spontaneous cell death in the culture medium” value was “decrease spontaneous cell death”. For the same molecule, in series [1], the “Change of LDH release” value was −62%.
As for `C[C@@H]1CC(=O)NN=C1c1ccc(NN=C(C#N)C#N)cc1` [Levosimendan], the “Effect on intoxication: total length” value in series [2] is on record as “no significant effect”.
As to `Cc1noc(NS(=O)(=O)c2ccc(N)cc2)c1C` [Sulfisoxazole], the “Protective effect” value in series [3] is “significantly prevented”. Further, in series [2], the “Effect on intoxication: total length” value is “no significant effect”.
Turning to `CN(C/C=C/C#CC(C)(C)C)Cc1cccc2ccccc12` [Terbinafine], in series [3], the “Protective effect” value is “significantly prevented” and the “Spontaneous cell death in the culture medium” value is “decrease spontaneous cell death”. For the same molecule, in series [2], the “Effect on intoxication: total length” value was “no significant effect” and the “Prevention of Aβ1-42 intoxication in HBMEC (capillary network)” value was “significantly prevented”.

B1: BDNF: BDNF (50 ng/ml), positive control for neuroprotection (protein, UniProt P23560 19-247, looked up)
Neurotrophic factor BDNF …: APMKEANIRGQGGLAYPGVRTHGTLESVNGPKAGSRGLTSLADTFEHVIEELLDEDQKVRPNEENNKDADLYTSRVMLSSQVPLEPPLLFLLEEYKNYLDAANMSMRVRRHSDPARRGELSVCDSISEWVTAADKKTAVDMSGGTVTVLEKVPVSKGQLKQYFYETKCNPMGYTKEGCRGIDKRHWNSQCRTTQSYVRALTMDSKKRIGWRFIRIDTSCVCTLTIKRGR
Take B1: in series [1], the “Change of LDH release” value is reported as −95%.
